The test system of this assay is CEM cells HIV-1 protection, formazan growth assay. Kind of assay: NCI AIDS Antiviral Assay. The following applies: for IC50: measured here: growth of uninfected CEM cells. Put shortly:
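Protection of CEM cells against HIV-1 measured as cell growth via soluble formazan read-out, with five concentrations tested on both infected and uninfected cells; failure to protect may reflect toxicity.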

Each structure is given as a SMILES string. Active and inactive are the calls of the source.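 Rule for the calls: active = compounds giving half or more protection of infected cells from virus-caused growth loss, again on retest; inactive = the rest.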 Where a SMILES comes first, the peptide text is derived from it.

As for `CC1=C2C(=O)c3ccccc3C2=C(C)S(=O)(=O)O1`, the EC50 – broadly, the concentration that produces a half-maximal response – is over 955 µM and the IC50 (usually the midpoint of a concentration-inhibition curve) turned out to be 832 µM.

Turning to `Cc1noc2c1C(=O)CCC2`, the EC50 is over 1660 µM and the IC50 was found to be 148 µM.

Take `CCCCCCCCCC=C(c1cc(Br)c(OC)c(C(=O)OC)c1)c1cc(Br)c(OC)c(C(=O)OC)c1`: the EC50 was over 29.5 µM and the IC50 was over 29.5 µM.

With `Nc1cc(Cl)ccc1SSc1ccc(Cl)cc1N`, the EC50 is over 200 µM and the IC50 is 12 µM.

On to `CC(C)CC(NC(=O)C(Cc1ccccc1)NC(=O)[C@H]1CC[C@H](NC(=O)C(N)Cc2ccc(O)cc2)C1)C(N)=O` (stereo not given in full), for which the outcome was inactive.

`O=C(N/C(=C\c1ccccc1Cl)c1nc2ccccc2[nH]1)c1ccccc1`: the outcome was inactive.

As to `C[Si](C)(C)/C(Br)=C\CCN1C(=O)CCC1=O`, the result was inactive.

As for `Cc1nnc2nc(-c3ccccc3)nc(-c3ccccc3)n12`, the EC50 was over 200 µM and the IC50 is over 200 µM.

With `CC(C)CCCC(C)[C@H]1CCC2C3CC[C@H]4C[C@@H](CCCP(=O)(c5ccccc5)c5ccccc5)CC[C@]4(C)C3CC[C@@]21C` (stereo not given in full), the EC50 is over 50.1 µM and the concentration for half-maximal inhibition (IC50) was over 50.1 µM.

`CC1CCC2(CC1)N=C1CCC(C)CC1C1(CCC(C)CC1)N2` (stereo not given): the EC50 was over 200 µM and the IC50 came to 97.7 µM.

As for `CN(NC(=O)c1cccs1)C1=NCCCCN1`, the EC50 was over 200 µM and the IC50 was over 200 µM.

`CC(=O)OC1(CSc2ccccc2)CCCCC1`: the EC50 is over 200 µM and the IC50 was found to be 49 µM.

As for `O=C1NC(S(=O)(=O)O)=NNC12c1ccccc1-c1ccccc12`, the EC50 is over 200 µM and the IC50 was determined as 107 µM.

Consider `CC1=NN(C(=O)CC(=O)Nc2ccccc2Cl)C(=O)C1N=Nc1ccc(S(=O)(=O)c2ccc(N=NC3C(=O)N(C(=O)CC(=O)Nc4ccccc4Cl)N=C3C)cc2)cc1` (stereo not given), for which the EC50 is over 100 µM and the IC50 is over 100 µM.

On to `Nc1ccn(C2OC(COP(=O)(O)O)C(O)OC2O)c(=O)n1` (stereo not given), for which the outcome was inactive.

With `N/C(=N\N=C\C1CC2C=CC1C2)NO` (stereo not given), the outcome was inactive.

For `N#CC1(C#N)C2CCCCC23OC(=N)C1(C#N)C(c1ccccc1)O3` (stereo not given), the EC50 was over 200 µM and the IC50 is 5.62 µM.

For the molecule `Cc1ccc(/C(C#N)=C/c2cccc([N+](=O)[O-])c2)cc1`, the EC50 was over 200 µM and the IC50 is over 200 µM.

As to `O=S(=O)(O)SC/C=C\CSS(=O)(=O)O`, the result was inactive.

As to `CCCCOC(=O)OC1CCC2(C)CC3C=CC2(OO3)C1(C)C` (stereo not given), the EC50 is over 20 µM and the IC50 came to 4.27 µM.

For the molecule `Cn1c(=O)c2c(nc3sc4ccccc4c(=O)n32)n(C)c1=O`, the EC50 is over 151 µM and the IC50 was over 151 µM.

As for `O=C(CCCC[n+]1ccccc1)Sc1ccccc1C(=O)Nc1ccc(S(=O)(=O)NC(=O)c2ccccc2)cc1`, the EC50 is 18.2 µM and the IC50 was determined as 61.7 µM.

Take `CCSc1nc(C)nc2c1sc1nc3ccccc3n12`: the EC50 is over 100 µM and the IC50 is over 100 µM.

`COc1c(O)c(O)cc2c1-c1ccc(OC)c(=O)cc1C(NC(C)=O)CC2` (stereo not given): the EC50 was over 200 µM and the half-maximal inhibitory concentration (IC50) came out at 1.05 µM.

For `CCC12C=CCN(C1)C(=O)Cc1c([nH]c3ccccc13)/C(=N/NC(=O)OC)C2` (stereo not given), the EC50 is over 52.5 µM and the IC50 was over 52.5 µM.

On to `Cc1cc(C)nc(NS(=O)(=O)c2ccc(Nc3c4ccccc4nc4c(C(=O)N5CCN(CCO)CC5)cccc34)cc2)n1`, for which the EC50 is over 36.3 µM and the IC50 is over 36.3 µM.

In the case of `COc1ccc2c(c1)C1OCCNC1CC2` (stereo not given), the EC50 was over 200 µM and the IC50 was over 200 µM.

Regarding `Cc1ccc(/C([O-])=C(\C(=S)Nc2cccc(C)c2)[n+]2ccccc2)cc1`, the result was inactive.

Take `CN(C)C1C(=O)C(C(=O)NC[N+]23CCO[B-]2(c2ccc(Cl)cc2)OCC3)=C(O)C2(O)C(=O)C3=C(O)c4c(O)cccc4C(C)(O)C3CC12` (stereo not given): the EC50 was over 27.5 µM and the IC50 was over 27.5 µM.

As to `CCCCCCCCOCC(COC(=O)CCCCCCC)OC(=O)CCCCCCC` (stereo not given), the EC50 was over 151 µM and the IC50 amounted to 37.2 µM.

As for `C[C@H]1[C@H]2CC[C@H]3[C@@H]4CC(=O)[C@]56C[C@@H]5CC[C@]6(C)[C@H]4CC[C@]23CN1C`, the EC50 was over 91.2 µM and the IC50 is over 91.2 µM.

With `Nc1nc(Cl)c(CO)c(NCC2(CO)CC(CCc3ccccc3)C2)n1` (stereo not given), the EC50 is over 20 µM and the IC50 was found to be 0.129 µM.

For `N#Cc1c2c(c(N)oc1=O)C(c1ccccc1)CC(=O)N2` (stereo not given), the EC50 was over 200 µM and the IC50 is over 200 µM.

Turning to `CC(=O)NNc1nc(C)c(C(/C=C/c2ccccc2O)=N/NC(=O)c2ccncc2)s1`, the EC50 was over 22.4 µM and the half-maximal inhibitory concentration (IC50) is over 22.4 µM.

Turning to `CN(C)C(=N/O)/C(=N\O)N(C)C`, the result was inactive.

In the case of `COc1cc(O)c2c(c1)C(=O)c1cc3c(c(O)c1C2=O)C(OC1OC(C)C(O)C(O)C1OC)C(OC)C(C)(O)C3=O` (stereo not given), the EC50 was over 200 µM and the IC50 worked out at 3.16 µM.

For the molecule `O=C1CN(S(=O)(=O)c2ccc([N+](=O)[O-])cc2)CC(=O)CN(S(=O)(=O)c2ccc([N+](=O)[O-])cc2)CC(=O)CN(S(=O)(=O)c2ccc([N+](=O)[O-])cc2)C1`, the EC50 is over 200 µM and the IC50 is over 200 µM.

On to `O=c1c(SCc2ccccc2)c(N2CCCCC2)cnn1-c1ccccc1`, for which the EC50 is over 69.2 µM and the IC50 is over 69.2 µM.

In the case of `CC(C)CNC(=O)Cn1c(-c2ccccc2)cc2ccccc21`, the EC50 is over 200 µM and the IC50 was determined as 195 µM.

Consider `CC1CCC2(CC1)NC1=C(CC(C)CC1)C1=C2CC(C)CC1` (stereo not given), for which the EC50 is over 200 µM and the IC50 amounted to 35.5 µM.

`CN(CCNC(=O)c1cc(-c2ccccc2)nc2ccccc12)CCNC(=O)c1cc(-c2ccccc2)nc2ccccc12`: the EC50 is over 20 µM and the IC50 was found to be 10.5 µM.

`Nc1ccc(S(=O)(=O)Nc2cnc3ccccc3n2)cc1`: the EC50 is over 316 µM and the IC50 was over 316 µM.

Consider `CC1(C)O[C@H]2OC(CO)C(OS(C)(=O)=O)[C@H]2O1` (stereo not given in full), for which the EC50 was over 200 µM and the IC50 is over 200 µM.

Consider `CC(=O)CC(=O)N1CCOC1=O`, for which the EC50 is over 200 µM and the 50% inhibitory concentration (IC50) came out at 36.3 µM.

Take `CC1CCCc2c1c1ccc3c(O)cccc3c1oc2=O` (stereo not given): the EC50 was over 7.08 µM and the IC50 was over 7.08 µM.

As for `CC1=C2CCCC2=C/C(=N/Nc2ccc([N+](=O)[O-])cc2[N+](=O)[O-])CC1`, the outcome was inactive.

`COC1OC2COC(c3ccccc3)OC2C(S)C1S` (stereo not given): the EC50 was over 200 µM and the half-inhibitory concentration (IC50) amounted to 102 µM.

For `O=C(CCN1CCC(CCO)CC1)Nc1ccc2c(c1)C(=O)c1ccc(NC(=O)CCN3CCC(CCO)CC3)cc1C2=O`, the EC50 is over 200 µM and the IC50 came out at 43.7 µM.

Consider `O=[N+]1ON=C(c2ccccc2)C1=C1C(c2c(-c3ccccc3)no[n+]2[O-])=NON1[O-]`, for which the EC50 was over 200 µM and the half-inhibitory concentration (IC50) came to 6.03 µM.

As for `COC(=O)CCC12CCC(=O)C1[C@@H](C(=O)OC)C[C@H]2C(=O)OC` (stereo not given in full), the outcome was inactive.

`CC(C)(C)OC(=O)NCCNC(=O)OCc1ccccc1`: the EC50 is over 200 µM and the half-maximal inhibitory concentration (IC50) was over 200 µM.

For `CC(C)(C)[Si](C)(C)OCC1CCC(n2cnc3c(NC(=O)c4ccccc4)ncnc32)O1` (stereo not given), the outcome was inactive.

On to `NC(CCC(=O)NC(CS)C(=O)NCC(=O)O)C(=O)O` (stereo not given), for which the EC50 was over 288 µM and the IC50 was over 288 µM.

For the molecule `Cc1[nH]c(=O)[nH]c(=O)c1CN1CCCCC1`, the EC50 was over 6.46 µM and the IC50 is over 6.46 µM.

As for `Nc1nc(N)c(CCCCc2ccccc2)c(/C=C/c2ccc([N+](=O)[O-])cc2)n1`, the result was inactive.

With `CCC(C)[C@@H]1NC(=O)[C@@H]2CCCN2C(=O)C(CC(O)CCl)OC(=O)CCNC(=O)[C@H](C)N(C)C(=O)[C@H](C(C)C)N(C)C1=O` (stereo not given in full) (HELM PEPTIDE1{[CCC(C)[C@H](N[*:1])C(=O)[*:2]].[meV].[meA].[bAla].[O=C(C(CC(O)CCl)O[*:1])[*:2]].P}$PEPTIDE1,PEPTIDE1,1:R1-6:R2$$$V2.0), the EC50 was over 2 µM and the IC50 amounted to 0.11 µM.

Consider `CC(C)C(=O)N1Cc2cc(Cl)cc(Cl)c2OC(=O)c2ccccc21`, for which the EC50 was over 29.5 µM and the IC50 stood at 3.02 µM.

For the molecule `COc1ccc(C[C@@H]2Cc3cc(OC)c(OC)cc3CN2C)cc1`, the EC50 was over 692 µM and the IC50 was found to be 45.7 µM.

Turning to `CCSC1=N/C(=C/c2ccccc2O)C(=O)N1`, the EC50 was over 200 µM and the half-maximal inhibitory concentration (IC50) was 123 µM.

On to `O=S(=O)(Nc1ccccc1Cl)c1ccccc1`, for which the EC50 is over 200 µM and the IC50 came to 83.2 µM.

For `CN(C)CC(CO)(CN(C)C)CN(C)C`, the EC50 is over 200 µM and the IC50 is over 200 µM.

As to `O=C1CC(c2ccc(O)c(O)c2)c2c(cc(O)c3c2O[C@H](c2ccc(O)c(O)c2)[C@H](O)C3)O1` (stereo not given in full), the EC50 is over 200 µM and the half-maximal inhibitory concentration (IC50) is 31.6 µM.

Regarding `C[C@H]1CN[C@@H]2[C@@H](C)[C@H]3[C@@H](C[C@H]4[C@@H]5CC[C@H]6C[C@@H](N)CC[C@]6(C)[C@H]5CC[C@]34C)O[C@@]2(O)C1`, the EC50 was over 38 µM and the half-inhibitory concentration (IC50) was 1.74 µM.

On to `O=C1NN(C2=NNC3(C(=O)N2)c2ccccc2-c2ccccc23)C(c2ccccc2)=N/C1=C/c1ccc(Cl)cc1`, for which the EC50 is over 100 µM and the IC50 is 70.8 µM.

As to `CCOC(=O)C1OC1C1CCCc2ccccc21` (stereo not given), the EC50 is over 200 µM and the IC50 was over 100 µM.

Take `CC1([N+](=O)[O-])COP(=O)(Nc2cccc(Cl)c2)OC1` (stereo not given): the EC50 was over 813 µM and the half-inhibitory concentration (IC50) was found to be 398 µM.

`COc1cc2c(c(OC)c1OC)C1=NNC(=O)C1(C)CC2` (stereo not given): the EC50 was over 617 µM and the IC50 stood at 479 µM.

For the molecule `COc1ccc(Oc2cc(CC3c4cc(OC)c(OC)cc4CCN3C)c([N+](=O)[O-])cc2OC)cc1OC` (stereo not given), the outcome was inactive.

In the case of `Cc1cc2c(cc1C)NC(=O)CC(=O)N2`, the EC50 was over 200 µM and the half-maximal inhibitory concentration (IC50) is over 200 µM.

(Values after PubChem BioAssay AID179 (DTP/NCI, 2004).)
